Consider eleven molecules from ChEMBL document CHEMBL1201862, “PubChem BioAssay data set” (2004).

Assay in all cases: growth of human tumour cells (NCI), 48 h
The test system of assay [1] is UACC-257.
The subject of assay [2] is NCI-H226.
In assay [3] the test system is NCI/ADR-RES.
Assay [4] relates to CAKI-1.
The subject of assay [5] is MDA-MB-231.
The test system of assay [6] is SF-295.
For assay [7], the system named is DU-145.
Assay [8] relates to IGROV-1.
The test system of assay [9] is OVCAR-8.
For assay [10], the system named is MDA-MB-435.
For assay [11], the system named is SK-MEL-5.
The test system of assay [12] is BT-549.
Assay [13] concerns OVCAR-5.
Assay [14] relates to HT-29.
For assay [15], the system named is 786-0.
Assay [16] deals with CCRF-CEM.
Assay [17] deals with COLO 205.
Assay [18] deals with T47D.
Assay [19] concerns OVCAR-4.
The test system of assay [20] is UACC-62.

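96-well plates; 48 h exposure; 5 concentrations. Endpoints by linear interpolation between flanking doses. Not reached: highest tested concentration assigned. GI50 marks 50% less growth.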 The source made the active and inactive calls. Rule as the data show it: active = GI50 up to about 1.1 µM and inactive = higher.

For `COCCN(C(C)=O)C1CCC2(SCCS2)c2[nH]c3ccccc3c21` (stereo not drawn), the GI50 in assay [1], in assay [2], in [3], in [4], in assay [5] and in assay [6] was > 100 µM (inactive) throughout. The GI50 in assay [7], in [8], in [9], in [10], in assay [11] and in assay [12] was > 100 µM (inactive) throughout. Moreover, the GI50 in [13], in assay [14], in assay [15], in assay [16] and in assay [17] was > 100 µM (inactive) throughout.
As for `CN(C)Cc1cc(C(C)(C)C)cc(CNC2CCCCC2)c1O`, the GI50 in [18] was 63.5 µM (inactive); in assay [1] it was 26.2 µM (inactive); in assay [19], 35.6 µM (inactive); in assay [3], 25.2 µM (inactive); in [4], 44.6 µM (inactive); in assay [5] it was 42.3 µM (inactive). Besides, the GI50 was 23 µM (inactive) in assay [6]; 40.9 µM (inactive) in assay [7]; 29.4 µM (inactive) in assay [8]; 51.9 µM (inactive) in assay [20]; 65.9 µM (inactive) in [10]; 15.5 µM (inactive) in [11]. The GI50 in [12] was 76.7 µM (inactive); in [13], 19.2 µM (inactive); in [14], 17.5 µM (inactive); in assay [15], 27.9 µM (inactive); in assay [16] it was 12.9 µM (inactive); in [17], 15.9 µM (inactive).
With `COc1ccc(C2OCCN2C)cc1` (stereo not drawn), the GI50 in assay [18], in assay [1], in [2], in assay [19], in assay [3] and in [4] was > 100 µM (inactive) each time. In addition, the GI50 in [5], in [6], in assay [8], in [20], in assay [9] and in assay [10] was > 100 µM (inactive) each time. The GI50 in assay [11], in assay [12], in assay [13], in assay [14], in [15] and in [16] was > 100 µM (inactive) throughout. Also, the GI50 in assay [17] is > 100 µM (inactive).
Turning to `C=C1CCc2ccccc2C1=O`, the GI50 in assay [1], in [2], in [19], in assay [3], in assay [4] and in assay [5] was > 100 µM (inactive) throughout. Besides, the GI50 in assay [6] is 51.3 µM (inactive); in [7], > 100 µM (inactive); in [8], > 100 µM (inactive); in [20], > 100 µM (inactive); in assay [9] it was > 100 µM (inactive); in assay [10] it was 29.3 µM (inactive). Moreover, the GI50 in assay [11] was > 100 µM (inactive); in [12], > 100 µM (inactive); in [13], > 100 µM (inactive); in [14], 47.2 µM (inactive); in assay [15] it was > 100 µM (inactive); in assay [16], 45.8 µM (inactive). The GI50 in assay [17] was > 100 µM (inactive).
As for `COc1ccc(CNC(=O)NCn2cc(-c3ccccc3)nn2)cc1`, the GI50 in assay [1], in assay [19], in [3], in assay [4], in assay [5] and in assay [6] was > 100 µM (inactive) each time. Besides, the GI50 in assay [7], in assay [8], in assay [9], in assay [10], in assay [11] and in assay [12] was > 100 µM (inactive) throughout. Moreover, the GI50 in assay [13], in [14], in assay [15], in [16] and in assay [17] was > 100 µM (inactive) each time.
Take `Nc1cc(N2CCCC2)nc(=O)n1-c1ccccc1`: the GI50 is > 100 µM (inactive) in assay [1]; 54.2 µM (inactive) in assay [2]; > 100 µM (inactive) in [19]; > 100 µM (inactive) in assay [3]; > 100 µM (inactive) in [4]; > 100 µM (inactive) in assay [5]. Moreover, the GI50 in assay [6], in [7], in [8], in [9], in assay [10] and in assay [11] was > 100 µM (inactive) throughout. For the same molecule, the GI50 in assay [12], in [13], in assay [14], in assay [15], in assay [16] and in [17] was > 100 µM (inactive) each time.
`COC1C(OC(=O)c2ccc(C)[nH]2)C(O)C(Oc2ccc3c(O)c(NC(=O)c4ccc(O)c(CC=C(C)C)c4)c(=O)oc3c2Cl)OC1(C)C` (stereo not drawn): the GI50 in assay [18] is 15.9 µM (inactive); in assay [1] it was 54 µM (inactive); in assay [2] it was 12.5 µM (inactive); in assay [19], 26.6 µM (inactive); in assay [4], 18.7 µM (inactive); in [5], 21.1 µM (inactive). Also, the GI50 in assay [6] was 17.7 µM (inactive); in assay [7] it was 31 µM (inactive); in assay [8], 15.5 µM (inactive); in assay [20], 15.7 µM (inactive); in assay [9], 17.9 µM (inactive); in assay [10], 30.2 µM (inactive). The GI50 is 19.7 µM (inactive) in [11]; 17 µM (inactive) in assay [12]; 15.9 µM (inactive) in assay [13]; 15 µM (inactive) in assay [14]; 15.8 µM (inactive) in assay [15]; 18.1 µM (inactive) in [16]. The GI50 in assay [17] was 15.9 µM (inactive).
Regarding `Nc1ncnc2c1ncn2C1OC(COC2C(CO)OC(OC(C(=O)O)C(O)C(OP(=O)(O)O)C(O)C(=O)O)C(O)C2O)C(O)C1O` (stereo not drawn), the GI50 in assay [1], in [2], in assay [19], in assay [4], in assay [5] and in [6] was > 100 µM (inactive) throughout. In addition, the GI50 in assay [8], in assay [9], in [10], in assay [11], in assay [12] and in [13] was > 100 µM (inactive) in each case. The GI50 in assay [14], in assay [15], in assay [16] and in assay [17] was > 100 µM (inactive) in each case.
Turning to `CCOC(=O)NC`, the GI50 in assay [18], in assay [1], in assay [19], in assay [3], in [4] and in assay [5] was > 100 µM (inactive) throughout. Further, the GI50 in assay [6], in assay [7], in [8], in assay [20], in assay [10] and in assay [11] was > 100 µM (inactive) in each case. The GI50 in [12], in assay [13], in assay [14], in assay [15], in [16] and in assay [17] was > 100 µM (inactive) in each case.
Consider `COc1ccccc1-c1c(C#N)c(N)[nH]c(=S)c1C#N`, for which the GI50 in assay [1] is > 100 µM (inactive); in [2], 31.6 µM (inactive); in assay [19], 57.8 µM (inactive); in assay [3], > 100 µM (inactive); in assay [4] it was > 100 µM (inactive); in assay [5] it was 47.6 µM (inactive). The GI50 is 52.8 µM (inactive) in [6]; > 100 µM (inactive) in assay [7]; 92.3 µM (inactive) in assay [8]; 55.1 µM (inactive) in [20]; 61.4 µM (inactive) in [9]; 35.6 µM (inactive) in assay [10]. Moreover, the GI50 is 32.1 µM (inactive) in [11]; 47.9 µM (inactive) in [12]; > 100 µM (inactive) in assay [13]; 65.6 µM (inactive) in assay [14]; 50.7 µM (inactive) in assay [15]; 53.6 µM (inactive) in assay [17].
Regarding `C[C@]12CC[C@@H]3c4ccc(OC(=O)c5ccccc5)cc4CC[C@H]3[C@@H]1CC[C@@H]2Oc1c2ccccc2nc2ccccc12`, the GI50 in assay [1] was 13.6 µM (inactive); in [2] it was 14.9 µM (inactive); in assay [19], 15.8 µM (inactive); in [3], 11.4 µM (inactive); in [4], 9.73 µM (inactive); in [5], 11.5 µM (inactive). The GI50 in [6] was 16 µM (inactive); in assay [7], 9.23 µM (inactive); in [8], 12.5 µM (inactive); in assay [20], 17.7 µM (inactive); in [9] it was 13 µM (inactive); in [10], 5.46 µM (inactive). Besides, the GI50 is 8.61 µM (inactive) in assay [11]; 9.98 µM (inactive) in [12]; 16.6 µM (inactive) in assay [13]; 5.83 µM (inactive) in [14]; 7.66 µM (inactive) in assay [15]; 0.0161 µM (active) in [16]. Also, the GI50 in assay [17] is 15.1 µM (inactive).
